Source: patent US20240043427A1 (Gilead Sciences, Inc., priority 2020, published 2024)

Experiments:
[1] = molecular target: T1, CD73 (Homo sapiens (Human), UniProt P21589); assay: MDA-MB-231 Cell Based CD73 Activity Assay (DMEM); conditions: MDA-MB-231-GFP cells, DMEM medium with 10% human plasma, 200 uM AMP
[2] = molecular target: T1, CD73; type: biochemical; conditions: 1 mM NaH2PO4 in enzyme buffer, CD73 0.3 nM, AMP 15 uM

T1 sequence (P21589 27-574): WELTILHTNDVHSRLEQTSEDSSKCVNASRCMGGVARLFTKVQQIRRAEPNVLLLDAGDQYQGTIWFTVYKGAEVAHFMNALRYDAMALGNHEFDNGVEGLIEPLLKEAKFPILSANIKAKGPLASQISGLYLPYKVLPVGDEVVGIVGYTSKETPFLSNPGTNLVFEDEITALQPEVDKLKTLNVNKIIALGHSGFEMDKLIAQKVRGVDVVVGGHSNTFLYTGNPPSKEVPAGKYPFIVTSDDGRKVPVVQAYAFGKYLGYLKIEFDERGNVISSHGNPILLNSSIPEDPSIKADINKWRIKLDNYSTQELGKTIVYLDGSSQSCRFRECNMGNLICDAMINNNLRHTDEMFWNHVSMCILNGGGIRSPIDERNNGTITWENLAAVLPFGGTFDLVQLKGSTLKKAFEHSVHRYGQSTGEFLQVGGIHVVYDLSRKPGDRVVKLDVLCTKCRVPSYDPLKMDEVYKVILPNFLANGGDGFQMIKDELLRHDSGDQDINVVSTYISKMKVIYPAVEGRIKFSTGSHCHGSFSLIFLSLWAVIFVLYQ

Structure (SMILES)	EC50 [1]	IC50 [2]
CN(C)C(=O)COC1CN(c2cc(-c3c[nH]c(=O)[nH]c3=O)nn3ccnc23)CC1(F)F (stereo not drawn) [Example 204, 2-[1-[6-(2,4-dioxo-1H-pyrimidin-5-yl)imidazo[1,2-b]pyridazin-8-yl]-4,4-difluoro-pyrrolidin-3-yl]oxy-N,N-dimethyl-acetamide]	9.31 nM	1.63 nM
CC(=O)NC1CN(c2cc(-c3c[nH]c(=O)[nH]c3=O)nn3ccnc23)CC1(F)F (stereo not drawn) [Example 205, N-[1-[6-(2,4-dioxo-1H-pyrimidin-5-yl)imidazo[1,2-b]pyridazin-8-yl]-4,4-difluoro-pyrrolidin-3-yl]acetamide]	16 nM	4.42 nM
O=C(NC1CN(c2cc(-c3c[nH]c(=O)[nH]c3=O)nn3ccnc23)CC1(F)F)OCC(F)(F)F (stereo not drawn) [Example 206, 2,2,2-trifluoroethyl N-[1-[6-(2,4-dioxo-1H-pyrimidin-5-yl)imidazo[1,2-b]pyridazin-8-yl]-4,4-difluoro-pyrrolidin-3-yl]carbamate]	28.7 nM	4.97 nM
O=C(NC1CN(c2cc(-c3c[nH]c(=O)[nH]c3=O)nn3ccnc23)CC1(F)F)OCC1CC1 (stereo not drawn) [Example 207, cyclopropylmethyl N-[1-[6-(2,4-dioxo-1H-pyrimidin-5-yl)imidazo[1,2-b]pyridazin-8-yl]-4,4-difluoro-pyrrolidin-3-yl]carbamate]	20.3 nM	6.05 nM
O=C(NC1CN(c2cc(-c3c[nH]c(=O)[nH]c3=O)nn3ccnc23)CC1(F)F)OCC(F)F (stereo not drawn) [Example 208, 2,2-difluoroethyl N-[1-[6-(2,4-dioxo-1H-pyrimidin-5-yl)imidazo[1,2-b]pyridazin-8-yl]-4,4-difluoro-pyrrolidin-3-yl]carbamate]	25.4 nM	5.88 nM
O=C(NC1CN(c2cc(-c3c[nH]c(=O)[nH]c3=O)nn3ccnc23)CC1(F)F)c1ccccc1 (stereo not drawn) [Example 209, N-[1-[6-(2,4-dioxo-1H-pyrimidin-5-yl)imidazo[1,2-b]pyridazin-8-yl]-4,4-difluoro-pyrrolidin-3-yl]benzamide]	24.2 nM	2.8 nM
O=C(NC1CN(c2cc(-c3c[nH]c(=O)[nH]c3=O)nn3ccnc23)CC1(F)F)c1ccc(C(F)(F)F)cc1 (stereo not drawn) [Example 210, N-[1-[6-(2,4-dioxo-1H-pyrimidin-5-yl)imidazo[1,2-b]pyridazin-8-yl]-4,4-difluoro-pyrrolidin-3-yl]-4-(trifluoromethyl)benzamide]	24.4 nM	4.59 nM
O=C(NC1CN(c2cc(-c3c[nH]c(=O)[nH]c3=O)nn3ccnc23)CC1(F)F)c1ccc(C(F)(F)F)cn1 (stereo not drawn) [Example 211, N-[1-[6-(2,4-dioxo-1H-pyrimidin-5-yl)imidazo[1,2-b]pyridazin-8-yl]-4,4-difluoro-pyrrolidin-3-yl]-5-(trifluoromethyl)pyridine-2-carboxamide]	10.8 nM	2.33 nM
O=c1[nH]cc(-c2cc([C@H]3C[C@@H]3c3ccc(C(F)F)cc3)n3nccc3n2)c(=O)[nH]1 [Example 215, 5-(7-((1S,2S)-2-(4-(difluoromethyl)phenyl)cyclopropyl)pyrazolo[1,5-a]pyrimidin-5-yl)pyrimidine-2,4(1H,3H)-dione]	12.1 nM	1.41 nM
CC1(C)CN(c2cc(-c3c[nH]c(=O)[nH]c3=O)nc3ccnn23)CC1(F)F [Example 216, 5-(7-(3,3-difluoro-4,4-dimethylpyrrolidin-1-yl)pyrazolo[1,5-a]pyrimidin-5-yl)pyrimidine-2,4(1H,3H)-dione]	31.7 nM	8.01 nM
CCc1cnn2c(N3CC(C)(C)C(F)(F)C3)cc(-c3c[nH]c(=O)[nH]c3=O)nc12 [Example 217, 5-(7-(3,3-difluoro-4,4-dimethylpyrrolidin-1-yl)-3-ethylpyrazolo[1,5-a]pyrimidin-5-yl)pyrimidine-2,4(1H,3H)-dione]	584 nM	111 nM
O=c1[nH]cc(-c2cc(N3CC(F)(F)C4(CC4)C3)n3ncc(Cl)c3n2)c(=O)[nH]1 [Example 218, 5-(3-chloro-7-(7,7-difluoro-5-azaspiro[2.4]heptan-5-yl)pyrazolo[1,5-a]pyrimidin-5-yl)pyrimidine-2,4(1H,3H)-dione]	455 nM	3.29 nM
CC1(C)CN(c2cc(-c3c[nH]c(=O)[nH]c3=O)nc3c(F)cnn23)CC1(F)F [Example 219, 5-(7-(3,3-difluoro-4,4-dimethylpyrrolidin-1-yl)-3-fluoropyrazolo[1,5-a]pyrimidin-5-yl)pyrimidine-2,4(1H,3H)-dione]	62.6 nM	8.26 nM
CC1(C)CN(c2cc(-c3c[nH]c(=O)[nH]c3=O)nc3c(Cl)cnn23)CC1(F)F [Example 220, 5-(3-chloro-7-(3,3-difluoro-4,4-dimethylpyrrolidin-1-yl)pyrazolo[1,5-a]pyrimidin-5-yl)pyrimidine-2,4(1H,3H)-dione]	114 nM	5.34 nM
CC1CN(c2cc(-c3c[nH]c(=O)[nH]c3=O)nc3ccnn23)CC1(F)F (stereo not drawn) [Example 221, 5-(7-(3,3-difluoro-4-methylpyrrolidin-1-yl)pyrazolo[1,5-a]pyrimidin-5-yl)pyrimidine-2,4(1H,3H)-dione]	74.9 nM	13.1 nM
CC1CN(c2cc(-c3c[nH]c(=O)[nH]c3=O)nc3c(F)cnn23)CC1(F)F (stereo not drawn) [Example 222, 5-(7-(3,3-difluoro-4-methylpyrrolidin-1-yl)-3-fluoropyrazolo[1,5-a]pyrimidin-5-yl)pyrimidine-2,4(1H,3H)-dione]	133 nM	17.4 nM
O=c1[nH]cc(-c2cc(N3C[C@H]4CCC[C@H]4C3)c3nccn3n2)c(=O)[nH]1 [Example 223, 5-(8-((3aR,6aS)-hexahydrocyclopenta[c]pyrrol-2(1H)-yl)imidazo[1,2-b]pyridazin-6-yl)pyrimidine-2,4(1H,3H)-dione]	66.4 nM	31.4 nM
O=c1[nH]cc(-c2cc(N3CC4C(C3)C4(F)F)c3nccn3n2)c(=O)[nH]1 (stereo not drawn) [Example 224, 5-(8-(6,6-difluoro-3-azabicyclo[3.1.0]hexan-3-yl)imidazo[1,2-b]pyridazin-6-yl)pyrimidine-2,4(1H,3H)-dione]	32.6 nM	11.9 nM
O=c1[nH]cc(-c2cc(N3CC4CC4C3)c3nccn3n2)c(=O)[nH]1 (stereo not drawn) [Example 225, 5-(8-(3-azabicyclo[3.1.0]hexan-3-yl)imidazo[1,2-b]pyridazin-6-yl)pyrimidine-2,4(1H,3H)-dione]	106 nM	15.2 nM
O=c1[nH]cc(-c2cc(NC3CCCC3)c3nccn3n2)c(=O)[nH]1 [Example 226, 5-(8-(cyclopentylamino)imidazo[1,2-b]pyridazin-6-yl)pyrimidine-2,4(1H,3H)-dione]	410 nM	121 nM
O=c1[nH]cc(-c2cc(NC3CCC(F)(F)C3)c3nccn3n2)c(=O)[nH]1 (stereo not drawn) [Example 227, 5-(8-((3,3-difluorocyclopentyl)amino)imidazo[1,2-b]pyridazin-6-yl)pyrimidine-2,4(1H,3H)-dione]	487 nM	> 250 nM
CC1(C)C2CN(c3cc(-c4c[nH]c(=O)[nH]c4=O)nn4ccnc34)CC21 (stereo not drawn) [Example 228, 5-(8-(6,6-dimethyl-3-azabicyclo[3.1.0]hexan-3-yl)imidazo[1,2-b]pyridazin-6-yl)pyrimidine-2,4(1H,3H)-dione]	146 nM	31.2 nM
O=c1[nH]cc(-c2cc(N3CC[C@H](C(F)F)C3)c3nccn3n2)c(=O)[nH]1 [Example 229, (S)-5-(8-(3-(difluoromethyl)pyrrolidin-1-yl)imidazo[1,2-b]pyridazin-6-yl)pyrimidine-2,4(1H,3H)-dione]	175 nM	56.9 nM
O=c1[nH]cc(-c2cc(N3CC[C@@H](C(F)F)C3)c3nccn3n2)c(=O)[nH]1 [Example 230, (R)-5-(8-(3-(difluoromethyl)pyrrolidin-1-yl)imidazo[1,2-b]pyridazin-6-yl)pyrimidine-2,4(1H,3H)-dione]	64.7 nM	39.5 nM
N#Cc1ccc(OC2CN(c3cc(-c4c[nH]c(=O)[nH]c4=O)nn4ccnc34)CC2(F)F)cc1 (stereo not drawn) [Example 231, 4-((1-(6-(2,4-dioxo-1,2,3,4-tetrahydropyrimidin-5-yl)imidazo[1,2-b]pyridazin-8-yl)-4,4-difluoropyrrolidin-3-yl)oxy)benzonitrile]	2 nM	1.62 nM
O=c1[nH]cc(-c2cc(N3CC(Oc4ccc(C(F)F)cn4)C(F)(F)C3)c3nccn3n2)c(=O)[nH]1 (stereo not drawn) [Example 232, 5-(8-(4-((5-(difluoromethyl)pyridin-2-yl)oxy)-3,3-difluoropyrrolidin-1-yl)imidazo[1,2-b]pyridazin-6-yl)pyrimidine-2,4(1H,3H)-dione]	6.18 nM	2.15 nM
O=C(Nc1ccccc1F)OC1CN(c2cc(-c3c[nH]c(=O)[nH]c3=O)nn3ccnc23)CC1(F)F (stereo not drawn) [Example 233, 1-(6-(2,4-dioxo-1,2,3,4-tetrahydropyrimidin-5-yl)imidazo[1,2-b]pyridazin-8-yl)-4,4-difluoropyrrolidin-3-yl (2-fluorophenyl)carbamate]	0.8 nM	1.17 nM
O=C(Nc1ccccc1F)OCC(F)(F)COc1cc(-c2c[nH]c(=O)[nH]c2=O)nn2ccnc12 [Example 234, 3-((6-(2,4-dioxo-1,2,3,4-tetrahydropyrimidin-5-yl)imidazo[1,2-b]pyridazin-8-yl)oxy)-2,2-difluoropropyl (2-fluorophenyl)carbamate]	6.56 nM	0.62 nM
O=C(Nc1ccc(F)cc1F)O[C@H]1CN(c2cc(-c3c[nH]c(=O)[nH]c3=O)nn3ccnc23)CC1(F)F [Example 235, (S)-1-(6-(2,4-dioxo-1,2,3,4-tetrahydropyrimidin-5-yl)imidazo[1,2-b]pyridazin-8-yl)-4,4-difluoropyrrolidin-3-yl (2,4-difluorophenyl)carbamate]	0.82 nM	0.96 nM
Cc1ccc(NC(=O)O[C@H]2CN(c3cc(-c4c[nH]c(=O)[nH]c4=O)nn4ccnc34)CC2(F)F)c(F)c1 [Example 236, (S)-1-(6-(2,4-dioxo-1,2,3,4-tetrahydropyrimidin-5-yl)imidazo[1,2-b]pyridazin-8-yl)-4,4-difluoropyrrolidin-3-yl (2-fluoro-4-methylphenyl)carbamate]	3.04 nM	1.02 nM
